Data reported in patent US20250312469A1 (CANGET BIOTEKPHARMA, priority 2024, published 2025).
Entries after “also recorded” stand apart in the source; their conditions may differ.

Columns and labels:
[1] = system: LNCaP, DU145 and PC-3 cells; assay: MTT cell growth/viability assay in PCa cells; assay type: cell-based, human
Experimental: MTT assay for determining cancer cell growth viability: The MTT assay was described previously (13). […] Briefly, ˜2500 viable cells with or without genetic manipulation were plated in each well in 96-well plates. […] MTT, a colorimetric substrate, was then added to a final concentration of 0.4 mg/mL to each well. Cells in 96-well plates were further incubated in a 5% CO2 incubator at 37° C. for 4 h, and then the medium was aspirated. The MTT metabolic product formazan was solubilized by adding 200 μl of DMSO to each well. Absorbance in the relevant wells was measured at 570 nm using an Ultra Microplate Reader (Bio-Tek Instruments).

[2] = biological target: hERG (Homo sapiens, UniProt Q12809); assay: cell-based
Experimental: All cell suspensions, buffers, and test compound solutions were at room temperature during the experiment. Briefly, Chinese hamster ovary (CHO) cells stably transfected with hERG (cell line obtained from Cytomyx, UK) were seeded in each well of a PatchPlate™ positioned over a small hole at the bottom of each well to form an electrical seal. The resistance of each seal was measured via a common ground electrode in the intracellular compartment and individual electrodes placed into each of the upper wells. Electrical access to the cell was then achieved by circulating a perforating agent, amphotericin B, underneath the PatchPlate™. The hERG channels were activated by applying a depolarizing step to +40 mV for 5 s and then clamped at […] for 4 s to elicit the hERG tail current, before returning to […] for 0.3 s. […] Each concentration was tested in 4 replicate wells on the PatchPlate™.
All cell suspensions, buffers and test compound solutions were at room temperature during the experiment. (2) The cells used were Chinese hamster ovary (CHO) cells stably transfected with hERG (cell line obtained from Cytomyx, UK). A single cell suspension was prepared in extracellular solution (Dulbecco's phosphate buffered saline with calcium and magnesium pH 7.2) and aliquots added automatically to each well of a PatchPlate™. The cells were then positioned over a small hole at the bottom of each well by applying a vacuum beneath the plate to form an electrical seal. The vacuum was applied through a single compartment common to all wells which was filled with intracellular solution (buffered to pH 7.2 with HEPES). The resistance of each seal was measured via a common ground electrode in the intracellular compartment and individual electrodes placed into each of the upper wells. Electrical access to the cell was then achieved by circulating a perforating agent, amphotericin B, underneath the PatchPlate™. (3) The pre compound hERG current was then measured. […] The hERG channels were then activated by applying a depolarizing step to +40 mV for 5 sec and then clamped at […] for 4 sec to elicit the hERG tail current, before returning to […] for 0.3 sec. […] (5) The IonWorks™ HT instrument automatically added test compound dilutions to the upper wells of the PatchPlate™ from a 96 well microtitre plate. The test compound was left in contact with the cells for 300 sec before recording currents using the same voltage step protocol as in the pre compound scan. […] (6) Each concentration was tested in 4 replicate wells on the PatchPlate™ (maximum of 24 data points).
The percentage inhibition was calculated using the following equation: […]

[3] = system: 22Rv1 CRPC tumors; assay: 22Rv1 CRPC tumor model
[4] = Plasma protein binding (RED); conditions: both, human, % Bound of Plasma, Test Article (FL118), 37° C.
[5] = Rat toxicology/MTD, limited numbers, FL118-HPβCD complex powder suspension (Roswell Park); conditions: for MTD at 50 days: Sprague-Dawley, rat, in vivo, po, conservative MTD; for BASO / EOS / HCT / HGB / LYM / MCH / MCHC / MCV / MONO / MPV / NEUT / PDW / PLT / RBC / RDW-SD / RET / WBC / ALB / ALP / ALT / AMYL / BUN / CHOL / CREA / Ca / GLU / Na / PHOS / TBIL / TP: rats, oral; for ALB / ALP / ALT / AMYL / BUN / CHOL / CREA / Ca / GLU / Na / PHOS / TBIL / TP: serum

hERG, sequence (Q12809 whole entry): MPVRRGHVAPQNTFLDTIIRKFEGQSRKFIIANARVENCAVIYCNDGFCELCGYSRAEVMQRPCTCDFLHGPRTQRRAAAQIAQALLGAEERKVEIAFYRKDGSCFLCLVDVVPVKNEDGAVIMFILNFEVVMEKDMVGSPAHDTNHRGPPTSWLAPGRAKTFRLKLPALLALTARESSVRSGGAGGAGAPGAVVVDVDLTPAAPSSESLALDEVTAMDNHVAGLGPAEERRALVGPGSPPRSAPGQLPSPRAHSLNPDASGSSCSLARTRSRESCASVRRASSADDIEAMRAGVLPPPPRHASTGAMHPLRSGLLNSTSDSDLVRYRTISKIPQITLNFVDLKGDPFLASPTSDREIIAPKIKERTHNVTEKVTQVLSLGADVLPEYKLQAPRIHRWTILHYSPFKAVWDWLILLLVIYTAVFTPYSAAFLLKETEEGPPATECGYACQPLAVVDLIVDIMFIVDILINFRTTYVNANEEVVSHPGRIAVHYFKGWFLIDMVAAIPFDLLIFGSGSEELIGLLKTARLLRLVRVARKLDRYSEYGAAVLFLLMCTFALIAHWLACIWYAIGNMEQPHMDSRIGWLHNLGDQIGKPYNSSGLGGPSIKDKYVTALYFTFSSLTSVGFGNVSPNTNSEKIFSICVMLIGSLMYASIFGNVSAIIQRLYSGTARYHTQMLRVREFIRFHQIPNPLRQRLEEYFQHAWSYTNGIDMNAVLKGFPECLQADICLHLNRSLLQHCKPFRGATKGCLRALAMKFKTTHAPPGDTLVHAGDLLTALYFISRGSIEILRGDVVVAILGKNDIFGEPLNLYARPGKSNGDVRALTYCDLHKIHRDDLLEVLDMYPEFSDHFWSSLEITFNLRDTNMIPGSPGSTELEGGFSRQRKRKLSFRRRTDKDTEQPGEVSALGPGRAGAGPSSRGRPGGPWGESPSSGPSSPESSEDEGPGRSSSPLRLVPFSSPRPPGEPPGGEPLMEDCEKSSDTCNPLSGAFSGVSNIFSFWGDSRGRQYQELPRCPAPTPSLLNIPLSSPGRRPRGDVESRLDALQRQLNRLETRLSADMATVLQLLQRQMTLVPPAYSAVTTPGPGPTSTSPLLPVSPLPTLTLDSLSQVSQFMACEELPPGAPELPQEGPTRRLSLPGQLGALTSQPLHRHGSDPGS

SMILES: CCC1(O)C(=O)OCc2c1cc1n(c2=O)Cc2cc3cc4c(cc3nc2-1)OCO4 (centres unmarked) [FL118]
- cell growth inhibition in DDX5 KO DU145 cells ([1]; 72h MTT): significantly increased resistance to FL118 treatment
- cell growth inhibition, DU145 vs LNCaP and PC-3 ([1]; 72h MTT): higher sensitivity to FL118-induced cell growth inhibition
- cell growth inhibition with USP2a overexpression ([1]; LNCaP, DU145, 72 h): enhances FL 118-mediated inhibition of PCa cell growth
- IC50 [2]: > 1000 nM
- effect on hERG activity ([2]; CHO cells stably transfected with hERG, FL118 3-1000 nM): no inhibitory effects; also recorded: does not exhibit an inhibition of hERG activity
- inhibition at 300 s, 0.003 µM ([2]; human, pH 7.2): 14.8%
- inhibition at 300 s, 0.01 µM ([2]; human, pH 7.2): 18.7%
- inhibition at 300 s, 0.03 µM ([2]; human, pH 7.2): 5.6%
- inhibition at 300 s, 0.1 µM ([2]; human, pH 7.2): -5.2%
- inhibition at 300 s, 0.3 µM ([2]; human, pH 7.2): -2.9%
- inhibition at 300 s, 1 µM ([2]; human, pH 7.2): 19.9%
- antitumor efficacy ([3]; 5 mg/kg oral, weekly×4): completely inhibited 22Rv1 tumor growth
- toxicity (clinical observations, body weight) ([3]; therapeutic dose): exhibited no toxicity
- fraction unbound at 4 h, 1 μM [4]: < 0.01
- gross pathology ([5]; all doses): no obvious FL118-related gross pathology macroscopic findings
- clinical signs, female rats ([5]; all treatment groups): no serious adverse clinical signs
- weight loss, female rats ([5]; all treatment groups): ≤ 10%
- MTD at 50 days ([5]; female, female rats): ≤ 4.77 mg/kg
- MTD at 50 days ([5]; male, male rats): ≥ 2.44 mg/kg
- BASO ([5]; 1.56 mg/kg): 0.01-0.02 K/μL
- EOS ([5]; 1.56 mg/kg): 0.04-0.07 K/μL
- HCT ([5]; 1.56 mg/kg): 44.5-50.5%
- HGB ([5]; 1.56 mg/kg): 14.2 to 16 g/dL
- LYM ([5]; 1.56 mg/kg): 5.56-8.7 K/μL
- MCH ([5]; 1.56 mg/kg): 17.8 to 18.6 pg
- MCHC ([5]; 1.56 mg/kg): 31.2 to 32.1 g/dL
- MCV ([5]; 1.56 mg/kg): 56.1 to 58.6 fL
- MONO ([5]; 1.56 mg/kg): 0.19-0.58 K/μL
- MPV ([5]; 1.56 mg/kg): 7.9 to 8.1 fL
- NEUT ([5]; 1.56 mg/kg): 0.38-1.37 K/μL
- PDW ([5]; 1.56 mg/kg): 9.2 to 10 fL
- PLT ([5]; 1.56 mg/kg): 864-1070 K/μL
- RBC ([5]; 1.56 mg/kg): 7.67-8.73 M/μL
- RDW-SD ([5]; 1.56 mg/kg): 30 to 33.7 fL
- RET ([5]; 1.56 mg/kg): 401-524 K/μL
- WBC ([5]; 1.56 mg/kg): 6.5-10.7 K/μL
- BASO ([5]; 3.05 mg/kg): 0.01-0.04 K/μL
- EOS ([5]; 3.05 mg/kg): 0.02-0.1 K/μL
- HCT ([5]; 3.05 mg/kg): 34.6-46.5%
- HGB ([5]; 3.05 mg/kg): 11.8 to 14.8 g/dL
- LYM ([5]; 3.05 mg/kg): 4.83-6.03 K/μL
- MCH ([5]; 3.05 mg/kg): 18.4 to 19.2 pg
- MCHC ([5]; 3.05 mg/kg): 31.8 to 34.1 g/dL
- MCV ([5]; 3.05 mg/kg): 55.6 to 57.8 fL
- MONO ([5]; 3.05 mg/kg): 0.09-0.43 K/μL
- MPV ([5]; 3.05 mg/kg): 7.6 to 7.8 fL
- NEUT ([5]; 3.05 mg/kg): 0.92-1.42 K/μL
- PDW ([5]; 3.05 mg/kg): 9.4 to 9.9 fL
- PLT ([5]; 3.05 mg/kg): 665-1259 K/μL
- RBC ([5]; 3.05 mg/kg): 6.15-8.04 M/μL
- RDW-SD ([5]; 3.05 mg/kg): 29.3 to 35.3 fL
- RET ([5]; 3.05 mg/kg): 208-625 K/μL
- WBC ([5]; 3.05 mg/kg): 6.0-7.9 K/μL
- ALB ([5]; 1.56 mg/kg): 3.4 to 4.4 g/dL
- ALP ([5]; 1.56 mg/kg): 111-239 U/L
- ALT ([5]; 1.56 mg/kg): 63-134 U/L
- AMYL ([5]; 1.56 mg/kg): 1547-2358. U/L
- BUN ([5]; 1.56 mg/kg): 15 to 20 mg/dL
- CHOL ([5]; 1.56 mg/kg): 89 to 111 mg/dL
- CREA ([5]; 1.56 mg/kg): 0.1 to 0.5 mg/dL
- Ca ([5]; 1.56 mg/kg): 11.2 to 11.6 mg/dL
- GLU ([5]; 1.56 mg/kg): 206 to 296 mg/dL
- Na ([5]; 1.56 mg/kg): 143 to 154 mmol/L
- PHOS ([5]; 1.56 mg/kg): 10.8 to 13.2 mg/dL
- TBIL ([5]; 1.56 mg/kg): 0.2 to 0.8 mg/dL
- TP ([5]; 1.56 mg/kg): 6.2 to 6.7 g/dL
- ALB ([5]; 3.05 mg/kg): 3.6 to 4.3 g/dL
- ALP ([5]; 3.05 mg/kg): 37-168 U/L
- ALT ([5]; 3.05 mg/kg): 85-111 U/L
- AMYL ([5]; 3.05 mg/kg): 1614-2162. U/L
- BUN ([5]; 3.05 mg/kg): 15 to 21 mg/dL
- CHOL ([5]; 3.05 mg/kg): 38 to 87 mg/dL
- CREA ([5]; 3.05 mg/kg): 0.1 to 0.5 mg/dL
- Ca ([5]; 3.05 mg/kg): 11.3 to 11.9 mg/dL
- GLU ([5]; 3.05 mg/kg): 282 to 438 mg/dL
- Na ([5]; 3.05 mg/kg): 147 to 154 mmol/L
- PHOS ([5]; 3.05 mg/kg): 4.1 to 10.5 mg/dL
- TBIL ([5]; 3.05 mg/kg): 0.3 to 0.7 mg/dL
- TP ([5]; 3.05 mg/kg): 5.4 to 6.3 g/dL
- mortality ([5]; weekly oral gavage, 7 doses): No mortality occurred
